# Test results as given in patent US9301923B2, “Lipids, lipid compositions, and methods of using them” (NOVARTIS AG, priority 2009, dated 2016).
# Tests used:
# Factor VII = Factor VII activity assay, in vivo liver delivery of FVII siRNA LNP; parameters: species or system mouse; conditions: ~48 h
# Method: Female CD-1 mice are received from Charles River Labs and maintained on standard lab chow and water ad libitum. The animals weigh approximately 25 grams at time of dosing. Formulated siRNA is administered as a single dose at various dose levels intravenously via the lateral tail vein calculated on a (mg siRNAs/kg) basis according to individual animal weights (10 ml/kg injection volume).
# Formulated siRNAs are made up of double stranded siRNA sequences specific to a target mRNA sequence, and are in the form of lipid nucleotid particles (LNPs) containing cationic lipids, stealth lipids and neutral lipids, as provided in the Examples below. The siRNA construct for use in targeting the liver is specific to Factor VII. […] FVII siRNA duplex sequence
# Formulated Factor VII siRNA is administered as a single dose at various dose levels intravenously via the lateral tail vein calculated on a mg siRNAs/kg basis according to individual animal weights (10 ml/kg injection volume). Approximately 48 h after injection, the mice are euthanized by CO2 inhalation followed by exsanguinations through the vena cava. […] In some cases, small pieces (˜50 mg) of liver are collected and snap frozen in liquid nitrogen for follow up mRNA quantitation.
# An assay standard curve is prepared using pooled plasma aliquots from the vehicle control animals.
# [1] = Particle size and PDI by dynamic light scattering (Malvern Zetasizer); type: physicochemical
# Method: Unless indicated otherwise, all sizes referred to herein are the average sizes (diameters) of the fully formed nanoparticle, as measured by dynamic light scattering on a Malvern Zetasizer. The nanoparticle sample is diluted in phosphate buffered saline (PBS) so that the count rate is approximately 200-400 kcts. The data is presented as a weighted average of the intensity measure.
# The acronym PDI stands for polydispersity index. Unless indicated otherwise, all PDIs referred to herein are the PDI of the fully formed nanoparticle, as measured by dynamic light scattering on a Malvern Zetasizer. The nanoparticle sample is diluted in phosphate buffered saline (PBS) so that the count rate is approximately 200-400 kcts.
# [2] = dose 3 mg/kg siRNA i.v., lipid/DSPC/CHOL/AVANTI 880150P 50/28/18/4, N/P 3.43
# [3] = lipid/DSPC/CHOL/AVANTI 880150P 50/28/18/4, N/P 3.43
# [4] = lipid/no neutral lipid/CHOL/AVANTI 880150P 50/0/46/4, N/P 3.43
# [5] = lipid/DSPC/CHOL/AVANTI 880150P 30/30/36/4, N/P 2.3
# [6] = dose 3 mg/kg siRNA i.v., lipid/no neutral lipid/CHOL/AVANTI 880150P 50/0/46/4, N/P 3.43
# [7] = lipid/DSPC/CHOL/AVANTI 880150P 25/28/18/4, N/P 1.9
Compound,"FVII inhib % (Factor VII; dose 1 mg/kg siRNA i.v., lipid/DSPC/CHOL/AVANTI 880150P 50/28/18/4, N/P 3.43) [%]",FVII inhib % (Factor VII; [2]) [%],"Final size (nm) [1, 3] [nm]","PDI [1, 3]","Final size (nm) [1, 4] [nm]","PDI [1, 4]","FVII inhib % (Factor VII; dose 3 mg/kg siRNA i.v., lipid/DSPC/CHOL/AVANTI 880150P 30/30/36/4, N/P 2.3) [%]","Final size (nm) [1, 5] [nm]","PDI [1, 5]",FVII inhib % (Factor VII; [6]) [%],"FVII inhib % (Factor VII; dose 3 mg/kg siRNA i.v., lipid/DSPC/CHOL/AVANTI 880150P 25/28/18/4, N/P 1.9) [%]","Final size (nm) [1, 7] [nm]","PDI [1, 7]"
CCCCC/C=C\C/C=C\CCCCCCCCOCC(CN1CCN(C(=O)OC(C)(C)C)CC1)OCCOCCO[C@H]1CC[C@@]2(C)C(=CC[C@H]3[C@@H]4CC[C@H]([C@H](C)CCCC(C)C)[C@@]4(C)CC[C@@H]32)C1 (stereo partly drawn) [E0002],−0.3,10.4,109,0.221,,,,,,,,,
CCCCC/C=C\C/C=C\CCCCCCCCOCC(CN1CCC(OC)CC1)OCCOCCO[C@H]1CC[C@@]2(C)C(=CCC3C2CC[C@@]2(C)C3CC[C@@H]2[C@H](C)CCCC(C)C)C1 (stereo partly drawn) [E0005],,12.2,168,0.069,146,0.07,,,,,,,
CCCCC/C=C\C/C=C\CCCCCCCCOCC(CN1CCNCC1)OCCOCCO[C@H]1CC[C@@]2(C)C(=CC[C@H]3[C@@H]4CC[C@H]([C@H](C)CCCC(C)C)[C@@]4(C)CC[C@@H]32)C1 (stereo partly drawn) [E0012],,,,,,,9.3,220,0.105,,,,
CCCCC/C=C\C/C=C\CCCCCCCCOCC(CN1CC2CCCC2C1)OCCOCCO[C@H]1CC[C@@]2(C)C(=CC[C@H]3[C@@H]4CC[C@H]([C@H](C)CCCC(C)C)[C@@]4(C)CC[C@@H]32)C1 (stereo partly drawn) [E0022],,49.4,93,0.143,84,0.192,,,,87.8,,,
CCCCC/C=C\C/C=C\CCCCCCCCOCC(CN1CCC(CCOC)CC1)OCCOCCO[C@H]1CC[C@@]2(C)C(=CCC3C2CC[C@@]2(C)C3CC[C@@H]2[C@H](C)CCCC(C)C)C1 (stereo partly drawn) [E0033],,,,,105,0.05,,,,15.3,−36.4,161,0.16
CCCCC/C=C\C/C=C\CCCCCCCCOC[C@@H](CN1CCCCC1)OCCOCCO[C@H]1CC[C@@]2(C)C(=CCC3C2CC[C@@]2(C)C3CC[C@@H]2[C@H](C)CCCC(C)C)C1 (stereo partly drawn) [E0034],,81.3,99,0.16,99,0.16,,,,88.1,,,
CCCCC/C=C\C/C=C\CCCCCCCCOCC(CN1CCC[C@@H]1COC)OCCOCCO[C@H]1CC[C@@]2(C)C(=CC[C@H]3C4CC[C@H]([C@H](C)CCCC(C)C)[C@@]4(C)CC[C@@H]32)C1 (stereo partly drawn) [E0037],,69.3,96,0.24,117,0.1,,,,66.2,,,
CCCCC/C=C\C/C=C\CCCCCCCCOCC(CN1CCC(N2CCOCC2)C1)OCCOCCO[C@H]1CC[C@@]2(C)C(=CC[C@H]3[C@@H]4CC[C@H]([C@H](C)CCCC(C)C)[C@@]4(C)CC[C@@H]32)C1 (stereo partly drawn) [E0038],,−2.4,116,0.25,115,0.08,,,,−6.2,,,
CCCCC/C=C\C/C=C\CCCCCCCCOCC(CN1CCC(F)(F)CC1)OCCOCCO[C@H]1CC[C@@]2(C)C(=CCC3C2CC[C@@]2(C)C3CC[C@@H]2[C@H](C)CCCC(C)C)C1 (stereo partly drawn) [E0170],,9.3,133,0.095,170,0.05,,,,14.3,,,
